Experimental data from patent US20230060174A1, “PHARMACEUTICAL COMPOSITION OF TRICYCLIC PDE3/PDE4 DUAL INHIBITOR COMPOUND” (CHIA TAI TIANQING PHARMACEUTICAL GROUP CO., LTD., priority 2020, published 2023).

Legend:
[1] = Hygroscopicity study by dynamic vapor sorption (DVS); format: physicochemical; details: 25° C., RH 0%-90%-0%
Method: Experimental Example 2: Hygroscopicity study of crystalline form of the compound of formula (I)
Instrument model: SMS DVS Advantage
Test conditions: the sample (10-20 mg, the crystalline form prepared in Example 3) was placed in DVS sample tray for testing.
The detailed DVS parameters are as follows:
Balancing: dm/dt=0.01%/min (shortest: 10 min, longest: 180 min)
Drying: drying at 0% RH for 120 min
RH (%) test gradient: 10%
Range of RH (%) test gradient: 0%-90%-0%.

[2] = Stability study of solid crystalline form (HPLC total impurities); format: physicochemical
Method: Experimental Example 1: Stability study of solid crystalline form of the compound of formula (I)
High performance liquid chromatography (HPLC) • The chromatographic conditions of the HPLC method are seen in table below: • Chromatography column: Zorbax SB C-18, 4.6 mm×150 mm, 5 μm (PDS-HPLC-007) • Mobile phase A: 0.1% TFA in water • Mobile phase B: 100% ACN
Preparation of sample: the sample was dissolved with a mixed solvent of acetonitrile and water (acetonitrile: water=50:50 (v/v))
Solid stability stakeout method
The stability of the compound in the following conditions was examined, and samples were taken at different time points to detect the content. About 5 mg of the crystalline form of the compound of formula (I) prepared in Example 2 was accurately weighted in duplicate, transferred to a dry and clean glass bottle, spread into a thin layer as test samples, and placed in experimental conditions of influential factors ((60° C.), (relative humidity 92.5%), illumination (total illumination of 1.2×10^6 Luxhr/near UV energy of 200 whr/m^2), (40° C., relative humidity 75%), or (60° C., relative humidity 75%)). The samples were covered with aluminum foils having holes, and thus completely exposed to the conditions. Sampling analysis was performed at 5 days, 10 days, 1 month, 2 months and 3 months. The samples were completely exposed to illumination (visible light of 1200000 Lux, UV of 200 W) at room temperature.

[3] = reported in literature; cited from earlier work
[4] = reported in literature; cited from earlier work; remark: listed apart in the source
PDE4 = details: reported in literature; cited from earlier work

| Hygroscopicity (DVS) [1] | Total impurities % ([2]; 40° C. + 75% RH - 1 month) [%] | Total impurities % ([2]; 40° C. + 75% RH - 2 months) [%] | Total impurities % ([2]; 40° C. + 75% RH - 3 months) [%] | Total impurities % ([2]; 40° C. + 75% RH - 10 days) [%] | Total impurities % ([2]; 60° C. + 75% RH - 1 month) [%] | Total impurities % ([2]; 60° C. + 75% RH - 10 days) [%] | Total impurities % ([2]; 60° C. - 5 days) [%] | Total impurities % ([2]; 60° C. - 10 days) [%] | Total impurities % ([2]; 92.5% RH - 5 days) [%] | Total impurities % ([2]; 92.5% RH - 10 days) [%] | Total impurities % ([2]; Day 0) [%] | Total impurities % ([2]; Illumination (1.2×10^6 Lux hr, near UV 200 w hr/m^2)) [%] | Total impurities % ([2]; In the dark) [%] | Stability in the conditions of high temperature, high humidity or illumination ([2]; high temperature, high humidity or illumination, no increase of impurities) | Compound | Solubility [3] | Plasma clearance [4] | PDE4 inhibitory activity (PDE4) |
| --- | --- | --- | --- | --- | --- | --- | --- | --- | --- | --- | --- | --- | --- | --- | --- | --- | --- | --- |
| small hygroscopicity | 0.10 | 0.08 | 0.09 | 0.10 | 0.10 | 0.10 | 0.10 | 0.11 | 0.11 | 0.10 | 0.11 | 0.10 | 0.11 | good stability | CCOc1cc2c(cc1OC)-c1c/c(=N\c3c(C)cc(C)cc3C)n(CCNC(=O)c3c(O)nnn3C)c(=O)n1CC2 |  |  |  |
|  |  |  |  |  |  |  |  |  |  |  |  |  |  |  | COc1cc2c(cc1OC)-c1c/c(=N\c3c(C)cc(C)cc3C)n(CCNC(N)=O)c(=O)n1CC2 [RPL554] | poor | high | unsatisfactory |
